Columns and labels:
OATP2B1 = target: T1, OATP2B1 (Homo sapiens, UniProt O94956); details: 3 min; for Inhibition of cellular uptake by RIF, OATP2B1-overexpressing cells: 20 μM RIF, BUP 5 μM, OHB 30 μM, TB 20 μM, EB 100 μM; for Apparent Vmax / Km: net cellular uptake, HEK/OATP2B1-overexpressing cells, mean ± SD; for Km: read-out: Apparent Km
T1 sequence (O94956 1-709): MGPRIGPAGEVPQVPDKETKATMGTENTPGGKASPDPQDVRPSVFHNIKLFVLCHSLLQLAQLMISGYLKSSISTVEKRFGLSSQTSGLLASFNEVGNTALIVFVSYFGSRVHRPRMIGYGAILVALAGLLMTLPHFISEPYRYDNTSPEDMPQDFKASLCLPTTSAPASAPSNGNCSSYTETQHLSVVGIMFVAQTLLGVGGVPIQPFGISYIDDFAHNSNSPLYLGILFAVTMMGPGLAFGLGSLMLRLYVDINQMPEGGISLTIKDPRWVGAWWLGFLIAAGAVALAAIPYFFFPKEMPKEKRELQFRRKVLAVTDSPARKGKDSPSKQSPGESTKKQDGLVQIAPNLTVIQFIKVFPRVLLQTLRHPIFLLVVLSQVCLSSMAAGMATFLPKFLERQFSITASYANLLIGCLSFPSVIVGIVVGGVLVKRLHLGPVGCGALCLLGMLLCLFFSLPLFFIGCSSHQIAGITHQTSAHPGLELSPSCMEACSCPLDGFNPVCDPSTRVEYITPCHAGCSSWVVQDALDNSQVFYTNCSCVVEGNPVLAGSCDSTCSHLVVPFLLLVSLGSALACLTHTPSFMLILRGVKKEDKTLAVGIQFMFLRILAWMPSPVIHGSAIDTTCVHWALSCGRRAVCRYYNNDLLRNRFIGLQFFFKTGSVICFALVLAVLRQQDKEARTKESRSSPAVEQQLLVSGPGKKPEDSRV

[1] = co-administration of clopidogrel and ticlopidine; ref [25]; cited from earlier work
[2] = higher than BUP; ref [10], [13], [16], [17]; cited from earlier work

Structure (SMILES) | Inhibition of cellular uptake by RIF, OATP2B1-overexpressing cells (OATP2B1) | Apparent Vmax (OATP2B1) [pmol/mg protein/min] | Km (OATP2B1) [µM] | Decrease in AUC [1] | Circulating concentration relative to the parent drug [2]
CC(NC(C)(C)C)C(O)c1cccc(Cl)c1 (stereo not drawn) [EB, Erythrohydrobupropion] | no statistically significant differences | 1752±192 | 192 ± 35 |  | 
C[C@H]1NC(C)(C)CO[C@]1(O)c1cccc(Cl)c1 [OHB, Hydroxybupropion] | no statistically significant differences | 1641±98 | 74 ± 12 | 60–89% | 3 – 30 fold
C[C@H](NC(C)(C)C)[C@@H](O)c1cccc(Cl)c1 [TB, Threohydrobupropion] | no statistically significant differences | 1368±72 | 53 ± 9 |  | 3 – 30 fold

Reference: publication PMC7451048 (Drug metabolism letters, 2019)
